Reference: US11827665B2, “Process for the manufacture of (2S,3S,4S,5R,6S)-3,4,5-trihydroxy-6-(((4AR,10AR)-7-hydroxy-1-propyl-1,2,3,4,4A,5,10,10A-octahydrobenzo[g]quinolin-6-yl)oxy)tetrahydro-2H-pyran-2-carboxylic acid” (H. Lundbeck A/S, priority 2019, dated 2023)

Tests used:
[1] = PK experiments in rats: plasma compound (I) after oral dosing of prodrugs; assay type: in vivo, Han Wistar rats; conditions: Wistar rats, doses equal to 287 μg/kg of compound (I)
Method: Plasma was placed on water-ice following collection. Final storage at approximately −70° C.
Mobile phase B: Acetonitrile. […] Flow rate 0.5 mL/min.
The rats had unrestricted access to the diet.
Mobile phase B: Acetonitrile+0.2% formic acid. […] Flow rate 0.3 mL/min.
Dosing and blood sampling for compound (Ic): Han Wistar rats were supplied by Envigo, UK. […] The rats received a standard laboratory diet Teklad 2014C. The rats had unrestricted access to the diet. […] Rats were given 494 μg/kg (Ic).

human 5-HT2B receptor = molecular target: T1, human 5-HT2B receptor (Homo sapiens, UniProt P41595); experiment: 5-HT2B radioligand binding assay; conditions: [125I](±)DOI, CHO cell membranes, read-out: 5-HT2B binding affinity (% inhibition of control, specific binding)
T1 construct: host or cells: CHO
Method: Membrane homogenates prepared from CHO cells expressing the human 5HT2B receptor were incubated for 60 minutes at room temperature with 0.2 nM [1251](±)DOI (1-(4-iodo-2, 5-dimethoxyphenyl)propan-2-amine) in the absence or presence of the test compound in a buffer containing 50 mM Tris-HCl (pH 7.4), 5 mM MgCl2, 10 μM pargyline and 0.1% ascorbic acid. Nonspecific binding is determined in the presence of 1 μM (±)DOI. Following incubation, the samples were filtered rapidly under vacuum through glass fiber filters (GF/B, Packard) presoaked with 0.3% polyethyleneimine (PEI) and rinsed several times with ice-cold 50 mM Tris-HCl using a 96-sample cell harvester (Unifilter, Packard). The filters were dried and counted for radioactivity in a scintillation counter (Topcount, Packard) using a scintillation cocktail (Microscint 0, Packard). The results are expressed as a percent inhibition of the control radioligand specific binding. The standard reference compound was (±)DOI, which was tested in each experiment at several concentrations to obtain a competition curve from which its IC50 is calculated.

human D1 receptor = molecular target: T2, human D1 receptor (Homo sapiens, UniProt P21728); experiment: Dopamine D1 receptor agonism, HTRF cAMP assay; assay type: cell-based; conditions: example 5 and table 2 (D1 and D2 assays)
T2 construct: host or cells: HEK-293
Method: Dopamine D1 receptor agonism was measured using a HTRF cAMP from CisBio using the protocol developed by HD Biosciences (China). Briefly, the assay is a homogeneous time resolved-fluorescence resonance energy transfer (HTRF) assay that measures production of cAMP by cells in a competitive immunoassay between native cAMP produced by cells and cAMP-labeled with XL-665. A cryptate-labeled anti-cAMP antibody visualizes the tracer. The assay was performed in accordance with instructions from manufacturer.
Test compounds were added to wells of microplates (384 format). […] HTRF cAMP was measured by excitation of the donor with 337 nm laser (the “TRF light unit”) and subsequent (delay time 100 microseconds) measurement of cryptate and d2 emission at 615 nm and 665 nm over a time window of 200 microseconds with a 2000 microseconds time window between repeats/100 flashes). HTRF measurements were performed on an Envision microplate reader (PerkinElmer). The HTRF signal was calculated as the emission-ratio at 665 nm over 615 nm. The HTRF ratio readout for test compounds was normalized to 0% and 100% stimulation using control wells with DMSO-solvent or 30 μM dopamine. […]

T2 sequence (P21728 whole entry): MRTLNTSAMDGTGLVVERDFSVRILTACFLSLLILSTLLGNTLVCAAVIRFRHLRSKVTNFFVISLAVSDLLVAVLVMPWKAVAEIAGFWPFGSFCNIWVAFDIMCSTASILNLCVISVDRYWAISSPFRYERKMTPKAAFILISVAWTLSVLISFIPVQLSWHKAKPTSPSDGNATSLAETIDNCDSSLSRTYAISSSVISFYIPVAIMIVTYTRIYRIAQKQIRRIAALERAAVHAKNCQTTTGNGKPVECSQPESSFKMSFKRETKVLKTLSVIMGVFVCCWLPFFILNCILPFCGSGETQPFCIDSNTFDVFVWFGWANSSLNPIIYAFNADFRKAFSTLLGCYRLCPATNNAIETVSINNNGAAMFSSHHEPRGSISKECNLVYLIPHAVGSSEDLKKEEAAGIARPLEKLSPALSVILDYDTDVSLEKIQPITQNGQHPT
T1 sequence (P41595 whole entry): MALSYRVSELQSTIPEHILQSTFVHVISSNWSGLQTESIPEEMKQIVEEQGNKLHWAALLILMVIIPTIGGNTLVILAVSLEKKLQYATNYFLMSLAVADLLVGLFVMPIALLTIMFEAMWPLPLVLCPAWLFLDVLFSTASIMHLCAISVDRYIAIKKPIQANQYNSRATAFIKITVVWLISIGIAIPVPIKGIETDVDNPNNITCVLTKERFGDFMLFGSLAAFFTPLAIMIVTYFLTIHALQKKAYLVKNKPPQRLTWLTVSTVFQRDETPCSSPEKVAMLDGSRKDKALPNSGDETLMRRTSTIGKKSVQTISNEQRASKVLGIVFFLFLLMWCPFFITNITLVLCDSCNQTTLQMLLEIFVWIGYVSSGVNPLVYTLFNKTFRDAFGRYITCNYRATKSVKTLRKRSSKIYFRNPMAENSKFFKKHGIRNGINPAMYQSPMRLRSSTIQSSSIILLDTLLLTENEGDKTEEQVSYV

CCCN1CCC[C@@H]2Cc3c(ccc(O)c3O[C@@H]3O[C@H](C(=O)O)[C@@H](O)[C@H](O)[C@H]3O)C[C@H]21 [compound (Id), (2S,3S,4S,5R,6S)-3,4,5-trihydroxy-6-(((4aR,10aR)-7-hydroxy-1-propyl-1,2,3,4,4a,5,10,10a-octahydrobenzo[g]quinolin-6-yl)oxy)tetrahydro-2H-pyran-2-carboxylic acid]
Plasma profile of compound (I) after oral dosing of the prodrug (in words) [1]: slower absorption rate avoiding rapid peak concentrations
inhibition at 10 µM (human 5-HT2B receptor): -25%
In vitro dopaminergic activity (in words) (human D1 receptor): no in vitro dopaminergic activity
